From the supplement of paper PMC13380429

Tests used:
Conditions in all cases: 72 h
[1] = system: U2OS; test: relative viability EC50 (midpoint between 100% and the lowest measured viability); higher = less toxic
[2] = system: Caco-2; test: as above
[3] = system: Vero E6; test: as above
[4] = system: HepG2; test: as above
[5] = system: Calu-3; test: as above
[6] = system: U2OS; test: cell viability relative to DMSO; higher = less toxic
[7] = system: Caco-2; test: as above
[8] = system: Vero E6; test: as above
[9] = system: HepG2; test: as above
[10] = system: Calu-3; test: as above
[11] = system: U2OS; test: drug sensitivity score (DSS) for viability; higher = more toxic; extreme values may be limits of the assay
[12] = system: Caco-2; test: as above
[13] = system: Vero E6; test: as above
[14] = system: HepG2; test: as above
[15] = system: Calu-3; test: as above

SMILES	relative viability EC50 [1] [µM]	relative viability EC50 [2] [µM]	relative viability EC50 [3] [µM]	relative viability EC50 [4] [µM]	relative viability EC50 [5] [µM]	cell viability ([6]; 1 nM) [%]	cell viability ([6]; 10 nM) [%]	cell viability ([6]; 100 nM) [%]	cell viability ([6]; 1000 nM) [%]	cell viability ([6]; 10000 nM) [%]	cell viability ([7]; 1 nM) [%]	cell viability ([7]; 10 nM) [%]	cell viability ([7]; 100 nM) [%]	cell viability ([7]; 1000 nM) [%]	cell viability ([7]; 10000 nM) [%]	cell viability ([8]; 1 nM) [%]	cell viability ([8]; 10 nM) [%]	cell viability ([8]; 100 nM) [%]	cell viability ([8]; 1000 nM) [%]	cell viability ([8]; 10000 nM) [%]	cell viability ([9]; 1 nM) [%]	cell viability ([9]; 10 nM) [%]	cell viability ([9]; 100 nM) [%]	cell viability ([9]; 1000 nM) [%]	cell viability ([9]; 10000 nM) [%]	cell viability ([10]; 1 nM) [%]	cell viability ([10]; 10 nM) [%]	cell viability ([10]; 100 nM) [%]	cell viability ([10]; 1000 nM) [%]	cell viability ([10]; 10000 nM) [%]	drug sensitivity score [11]	drug sensitivity score [12]	drug sensitivity score [13]	drug sensitivity score [14]	drug sensitivity score [15]
Cc1cc(C)cc(C(=O)N(C)[C@H](Cc2ccc(-c3ccccc3)cc2)C(=O)N[C@@H](Cc2c[nH]c3ccccc23)C(=O)O)c1 [IRL-2500]	> 10	> 10	> 10	> 10	> 10	96.4	95.5	101	98.5	102	94	96.8	96.7	97.4	101	94.3	96.1	90.1	95.5	111	92.5	106	99.4	116	118	103	90.3	107	92.8	96.9	0	0	0	0	0
CC(=O)NC[C@H]1CN(c2ccc(-c3ccc(CNCc4cnn[nH]4)cc3)c(F)c2)C(=O)O1 [radezolid]	> 10	> 10	> 10	0.472	> 10	98.9	98.8	99.7	96.4	94.2	96.8	106	104	118	87.8	100	96.2	99.3	93.8	93.6	105	106	108	54.4	49.2	104	97.6	97.4	90.6	101	0	0	0	8.1	0
COc1ccc(-c2cc(=O)c3c(O)cc(O)cc3o2)cc1O [diosmetin]	> 10	> 10	> 10	> 10	> 10	94.2	93.1	101	96.2	90.2	95.9	91.6	101	96.6	86.3	95.2	96.8	91	101	113	97.7	109	94.6	120	86.7	93.2	104	91.5	93.7	78.3	0	0.4	0	0	1
COc1cc(C(=O)NCc2ccc(OCCN(C)C)cc2)cc(OC)c1OC [trimethobenzamide]	> 10	> 10	> 10	> 10	> 10	97.6	93.8	102	97.4	100	95.9	94.3	99.2	87.8	99.7	96.1	99.7	93.2	99.1	99.9	98.2	106	99.5	101	107	103	84.6	98.2	93.6	101	0	0	0	0	0
COc1cccc2cc(-c3nc([C@H]4CC[C@H](C(=O)O)CC4)n4ncnc(N)c34)[nH]c12 [OSI-027]	0.903	0.603	1.33	0.693	0.145	92.5	100	92.3	57.2	17.2	98.5	100	86.4	56.7	26.3	102	103	98.3	80.1	39.7	112	106	102	48.8	28.4	92.4	100	70.6	33.7	26.3	9.7	9.9	6.2	9.9	15.9
O=C(Nc1cc2cc[nH]c2cn1)c1ccccc1 [OAC1]	> 10	> 10	> 10	> 10	> 10	105	95.8	101	93.3	83.3	102	97	100	85.6	77.3	97.1	99.7	94.3	99.1	86.2	104	116	101	113	80.8	99.8	96.8	103	102	89.3	1	2.3	0.2	0.3	0
COc1cc2c(cc1OC)CN(C(=O)[C@@H](NCc1ccncc1)C(C)(C)C)CC2 [TCS-OX2-29]	> 10	> 10	> 10	> 10	> 10	94.6	100	92.6	98.3	99.7	96.9	95.2	97.3	99.2	91.1	100	91.9	96.8	93.9	96.9	101	93.1	103	94.3	102	114	88.9	103	98.6	91.7	0	0	0	0	0
NC(=O)c1ccc([N+](=O)[O-])cc1Cl [aklomide]	> 10	> 10	> 10	> 10	> 10	107	103	99.4	101	103	95.9	95.3	100	92.2	98.1	98.4	98.4	95.8	96.6	104	95.5	95.9	100	91	102	112	106	112	98.9	103	0	0	0	0	0
CCCc1nn(C)c2c(=O)[nH]c(-c3cc(S(=O)(=O)N4CCN(C)CC4)ccc3OCC)nc12 [sildenafil]	> 10	> 10	> 10	> 10	> 10	99.3	98.3	101	99.9	103	93.7	86.3	93.8	84.6	93.9	98.3	111	95.1	101	96.1	96.7	104	99.4	102	81.8	106	94.6	105	91.8	129	0	0	0	0.3	0
CCc1cc2c(s1)-n1c(C)nnc1CN=C2c1ccccc1Cl [etizolam]	> 10	> 10	> 10	> 10	> 10	98.6	102	98.8	97.3	96.5	102	103	96.4	94.3	99.2	104	106	105	99.8	99.6	104	106	106	93.1	108	101	93.2	105	96.4	105	0	0	0	0	0
CCCCN(CCCC)C(=O)CN1C[C@H](c2ccc3c(c2)OCO3)[C@@H](C(=O)O)[C@@H]1c1ccc(OC)cc1 [atrasentan]	> 10	> 10	> 10	> 10	> 10	94.4	94.4	102	94.5	106	101	99.8	98.3	88.3	99.3	104	105	98.8	98.8	104	106	104	92.6	104	97.6	98.7	94.6	114	104	109	0	0	0	0	0
CC(COc1ccccc1)N(CCCl)Cc1ccccc1 (stereo not given) [phenoxybenzamine]	> 10	> 10	> 10	> 10	> 10	96.3	102	93.4	114	93.6	86.6	92.7	102	95.9	86	102	98.3	101	97.9	94.3	101	106	88.7	89.4	96.5	96.5	109	106	101	95.8	0	0.5	0	0.6	0
CCOC(N)=O [urethane]	> 10	> 10	> 10	> 10	> 10	101	102	97.6	104	97.9	93.5	97.3	98.4	95.5	102	98.9	96.7	98	100	104	95.8	106	85	97.4	105	105	103	90.5	107	112	0	0	0	0	0
